Structures can show the parent of a compound that is named as a salt.
Row | melting point [°C] | Structure (SMILES)
1 | 118 to 121 | COc1cc2c(Oc3ccc(NS(=O)(=O)c4ccccc4C(F)(F)F)cc3F)ccnc2cc1OCCCN1CCCC(C)C1 (stereo not shown) [Example D35, N-(3-Fluoro-4-{6-methoxy-7-[3-(3-methyl-piperidin-1-yl)-propoxy]-quinolin-4-yloxy}phenyl)-2-trifluoromethyl-benzenesulfonamide]
2 | 98 to 101 | COc1cc(S(=O)(=O)Nc2ccc(Oc3ccnc4cc(OCCCN5CCCC(C)C5)c(OC)cc34)c(F)c2)ccc1F (stereo not shown) [Example D38, 4-Fluoro-N-(3-fluoro-4-{6-methoxy-7-[3-(3-methyl-piperidin-1-yl)-propoxy]-quinolin-4-yloxy}-phenyl)-3-methoxy-benzenesulfonamide]
3 | 250 to 253 | COc1cc2nccc(Oc3ccc(NS(=O)(=O)c4cccc5ccccc45)cc3)c2cc1OC [Example A104, Naphthalene-1-sulfonic acid [4-(6,7-dimethoxy-quinolin-4-yloxy)-phenyl]-amide]
4 | 95 to 97 | COc1cc2c(Oc3ccc(NS(=O)(=O)c4ccccc4OC(F)(F)F)cc3F)ccnc2cc1OCCCN (as salt: hydrochloride) [Example D15, N-{4-[7-(3-Amino-propoxy)-6-methoxy-quinolin-4-yloxy]-3-fluoro-phenyl}-2-trifluoromethoxy-benzenesulfonamide hydrochloride]
5 | 188 to 190 | COc1cc2nccc(Oc3ccc(NS(=O)(=O)c4ccc(OCc5c(C)noc5C)cc4)cc3)c2cc1OC [Example A87, N-[4-(6,7-Dimethoxy-quinolin-4-yloxy)-phenyl]-4-(3,5-dimethyl-isoxazol-4-ylmethoxy)-benzenesulfonamide]
6 | 225 to 227 | COc1cc2nccc(Oc3ccc(NS(=O)(=O)c4ccc(Cl)c(Cl)c4)c(F)c3)c2cc1OC [Example A49, 3,4-Dichloro-N-[4-(6,7-dimethoxy-quinolin-4-yloxy)-2-fluoro-phenyl]-benzenesulfonamide]
7 | 255 to 259 | COc1cc2nccc(Oc3ccc(NS(=O)(=O)c4cc(Cl)c(O)c(Cl)c4)c(C)c3)c2cc1OC [Example A105, 3,5-Dichloro-N-[4-(6,7-dimethoxy-quinolin-4-yloxy)-2-methyl-phenyl]-4-hydroxy-benzenesulfonamide]
8 | 163 to 165 | COc1cc2nccc(Oc3ccc(NS(=O)(=O)c4ccc5c(c4)CC(=O)N5C)cc3F)c2cc1OC [Example A125, 1-Methyl-2-oxo-2,3-dihydro-1H-indole-5-sulfonic acid [4-(6,7-dimethoxy-quinolin-4-yloxy)-3-fluoro-phenyl]-amide]
9 | 166 to 168 | COc1cc2c(Oc3ccc(NS(=O)(=O)c4ccccc4[N+](=O)[O-])cc3F)ccnc2cc1OCCCN1CCOCC1 [Example D46, N-{3-Fluoro-4-[6-methoxy-7-(3-morpholin-4-yl-propoxy)-quinolin-4-yloxy]-phenyl}-2-nitro-benzenesulfonamide]
10 | 185 to 188 | COc1cc2c(Oc3ccc(NS(=O)(=O)c4ccccc4Br)cc3F)ccnc2cc1OCCCN1CCOCC1 [Example D49, 2-Bromo-N-{3-fluoro-4-[6-methoxy-7-(3-morpholin-4-yl-propoxy)-quinolin-4-yloxy]-phenyl}-benzenesulfonamide]
11 | 214 to 216 | COc1cc2nccc(Oc3ccc(NS(=O)(=O)c4cc(Br)cc(C(F)(F)F)c4)c(F)c3)c2cc1OC [Example A47, 3-Bromo-N-[4-(6,7-dimethoxy-quinolin-4-yloxy)-2-fluoro-phenyl]-5-trifluoromethyl-benzenesulfonamide]
12 | 190 to 192 | COc1cc2c(Oc3ccc(NS(=O)(=O)c4cccc(-c5ccccc5)c4)cc3F)ccnc2cc1OCCCN1CCCC(C)C1 (stereo not shown) [Example D37, Biphenyl-3-sulfonic acid (3-fluoro-4-{6-methoxy-7-[3-(3-methyl-piperidin-1-yl)-propoxy]-quinolin-4-yloxy}-phenyl)-amide]
13 | 221 to 223 | COc1cc2nccc(Oc3ccc(NS(=O)(=O)c4cccc(OC(F)(F)F)c4)c(F)c3)c2cc1OC [Example A35, N-[4-(6,7-Dimethoxy-quinolin-4-yloxy)-2-fluoro-phenyl]-3-trifluoromethoxy-benzenesulfonamide]
14 | 255 to 257 | COc1cc2nccc(Oc3ccc(NS(=O)(=O)c4cccc5cccnc45)c(F)c3)c2cc1OC [Example A8, Quinoline-8-sulfonic acid [4-(6,7-dimethoxy-quinolin-4-yloxy)-2-fluoro-phenyl]-amide]
15 | 108 to 111 | COc1cc2c(Oc3ccc(NS(=O)(=O)c4cccc5ccccc45)cc3F)ccnc2cc1OCCCN1CCOCC1 [Example D48, Naphthalene-1-sulfonic acid {3-fluoro-4-[6-methoxy-7-(3-morpholin-4-yl-propoxy)-quinolin-4-yloxy]-phenyl}-amide]
16 | 180 to 181 | COc1cc2c(Oc3ccc(NS(=O)(=O)c4ccccc4C(F)(F)F)cc3F)ccnc2cc1OCCCN1CCOCC1 [Example D39, N-{3-Fluoro-4-[6-methoxy-7-(3-morpholin-4-yl-propoxy)-quinolin-4-yloxy]-phenyl}-2-trifluoromethyl-benzenesulfonamide]
17 | 90 to 93 | COc1cc(S(=O)(=O)Nc2ccc(Oc3ccnc4cc(OCCCN5CCOCC5)c(OC)cc34)c(F)c2)ccc1F [Example D44, 4-Fluoro-N-{3-fluoro-4-[6-methoxy-7-(3-morpholin-4-yl-propoxy)-quinolin-4-yloxy]-phenyl}-3-methoxy-benzenesulfonamide]
18 | 210 to 212 | COc1cc2c(Oc3ccc(NS(=O)(=O)c4cccc(-c5ccccc5)c4)cc3F)ccnc2cc1OCCCN1CCOCC1 [Example D42, Biphenyl-3-sulfonic acid {3-fluoro-4-[6-methoxy-7-(3-morpholin-4-yl-propoxy)-quinolin-4-yloxy]-phenyl}-amide]
19 | 198 to 202 | COc1cc2c(Oc3ccc(NS(=O)(=O)c4cccc(-c5ccccc5)c4)cc3F)ccnc2cc1OCCCN (as salt: hydrochloride) [Example D03, Biphenyl-3-sulfonic acid {4-[7-(3-amino-propoxy)-6-methoxy-quinolin-4-yloxy]-3-fluoro-phenyl}-amide hydrochloride]

The remaining lines, values behind:

Row | Structure (SMILES) | melting point [°C]
20 | COc1cc2c(Oc3ccc(NS(=O)(=O)c4ccccc4C(F)(F)F)cc3F)ccnc2cc1OCCCN (as salt: hydrochloride) | 197 to 199
21 | COc1cc2nccc(Oc3ccc(NS(=O)(=O)c4cc(F)ccc4F)c(F)c3)c2cc1OC | 232 to 234
22 | COc1cc2nccc(Oc3ccc(NS(=O)(=O)c4cccc(F)c4)c(F)c3)c2cc1OC | 233 to 235
23 | COc1cc2nccc(Oc3ccc(NS(=O)(=O)c4ccc(F)cc4F)c(F)c3)c2cc1OC | 212 to 214
24 | COc1cc2nccc(Oc3ccc(NS(=O)(=O)c4ccccc4OC(F)(F)F)c(F)c3)c2cc1OC | 204 to 206
25 | COc1cc2nccc(Oc3ccc(NS(=O)(=O)c4ccccc4C(F)(F)F)c(F)c3)c2cc1OC | 237 to 239
26 | COc1cc2c(Oc3ccc(NS(=O)(=O)c4cc(F)ccc4F)cc3F)ccnc2cc1OCCN1CCOCC1 | 169 to 173
27 | COc1cc2nccc(Oc3ccc(NS(=O)(=O)c4ccccc4C(F)(F)F)cc3F)c2cc1OC | 80 to 83
28 | COc1cc2nccc(Oc3ccc(NS(=O)(=O)c4ccccc4C(F)(F)F)cc3C)c2cc1OC | 209 to 211

Source: patent US9206130B2, “Quinoline derivatives as AXL kinase inhibitors” (Max-Planck-Gesellschaft zur Förderung der Wissenschaften …, priority 2008, dated 2015)
